According to patent US11787785B2 (NOVARTIS AG, priority 2021, dated 2023):
Where two headings read alike, the source gives them in different places.

Target: T1, WIZ protein (HiBit-WIZ fusion protein) (Homo sapiens, UniProt O95785+Q96SW2)
T1 construct: expressed in transfected cells
Assay: Quantification of WIZ protein levels in HiBit tag fusion protein assay (WIZ HiBit assay in 293T cells)
Assay type: cell-based
Design: remaining activity / Dmax: dose or concentration left out as unconfirmed
Procedure, shortened: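 Luminescence after LgBit complementation quantified remaining HiBit-WIZ in lysates of single-copy stable 293T lines. Cells dosed ~18 h at 37 °C with 10-point, 5-fold dilutions (highest 25 μM); DMSO set to 100%, fitted curve gave % remaining at 25 μM (Amax).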

[1] = HEK-293T, 100 − Amax, at 25 uM; 293T cells; read-out: % degradation of WIZ (100 − Amax)
[2] = HEK-293T, DMSO-normalized, curve-fitted percentage of WIZ-HiBit remaining at 25 uM; 293T cells; read-out: WIZ Amax
[3] = WIZ HiBit assay in 293T cells; 10-point, 5-fold dose response, highest concentration 25 μM, about 18 hours; read-out: WIZ AC50
[4] = HEK-293T, read-out: % degradation of WIZ (100 − Amax)

T1 sequence (O95785 whole entry, the tested form may be a part): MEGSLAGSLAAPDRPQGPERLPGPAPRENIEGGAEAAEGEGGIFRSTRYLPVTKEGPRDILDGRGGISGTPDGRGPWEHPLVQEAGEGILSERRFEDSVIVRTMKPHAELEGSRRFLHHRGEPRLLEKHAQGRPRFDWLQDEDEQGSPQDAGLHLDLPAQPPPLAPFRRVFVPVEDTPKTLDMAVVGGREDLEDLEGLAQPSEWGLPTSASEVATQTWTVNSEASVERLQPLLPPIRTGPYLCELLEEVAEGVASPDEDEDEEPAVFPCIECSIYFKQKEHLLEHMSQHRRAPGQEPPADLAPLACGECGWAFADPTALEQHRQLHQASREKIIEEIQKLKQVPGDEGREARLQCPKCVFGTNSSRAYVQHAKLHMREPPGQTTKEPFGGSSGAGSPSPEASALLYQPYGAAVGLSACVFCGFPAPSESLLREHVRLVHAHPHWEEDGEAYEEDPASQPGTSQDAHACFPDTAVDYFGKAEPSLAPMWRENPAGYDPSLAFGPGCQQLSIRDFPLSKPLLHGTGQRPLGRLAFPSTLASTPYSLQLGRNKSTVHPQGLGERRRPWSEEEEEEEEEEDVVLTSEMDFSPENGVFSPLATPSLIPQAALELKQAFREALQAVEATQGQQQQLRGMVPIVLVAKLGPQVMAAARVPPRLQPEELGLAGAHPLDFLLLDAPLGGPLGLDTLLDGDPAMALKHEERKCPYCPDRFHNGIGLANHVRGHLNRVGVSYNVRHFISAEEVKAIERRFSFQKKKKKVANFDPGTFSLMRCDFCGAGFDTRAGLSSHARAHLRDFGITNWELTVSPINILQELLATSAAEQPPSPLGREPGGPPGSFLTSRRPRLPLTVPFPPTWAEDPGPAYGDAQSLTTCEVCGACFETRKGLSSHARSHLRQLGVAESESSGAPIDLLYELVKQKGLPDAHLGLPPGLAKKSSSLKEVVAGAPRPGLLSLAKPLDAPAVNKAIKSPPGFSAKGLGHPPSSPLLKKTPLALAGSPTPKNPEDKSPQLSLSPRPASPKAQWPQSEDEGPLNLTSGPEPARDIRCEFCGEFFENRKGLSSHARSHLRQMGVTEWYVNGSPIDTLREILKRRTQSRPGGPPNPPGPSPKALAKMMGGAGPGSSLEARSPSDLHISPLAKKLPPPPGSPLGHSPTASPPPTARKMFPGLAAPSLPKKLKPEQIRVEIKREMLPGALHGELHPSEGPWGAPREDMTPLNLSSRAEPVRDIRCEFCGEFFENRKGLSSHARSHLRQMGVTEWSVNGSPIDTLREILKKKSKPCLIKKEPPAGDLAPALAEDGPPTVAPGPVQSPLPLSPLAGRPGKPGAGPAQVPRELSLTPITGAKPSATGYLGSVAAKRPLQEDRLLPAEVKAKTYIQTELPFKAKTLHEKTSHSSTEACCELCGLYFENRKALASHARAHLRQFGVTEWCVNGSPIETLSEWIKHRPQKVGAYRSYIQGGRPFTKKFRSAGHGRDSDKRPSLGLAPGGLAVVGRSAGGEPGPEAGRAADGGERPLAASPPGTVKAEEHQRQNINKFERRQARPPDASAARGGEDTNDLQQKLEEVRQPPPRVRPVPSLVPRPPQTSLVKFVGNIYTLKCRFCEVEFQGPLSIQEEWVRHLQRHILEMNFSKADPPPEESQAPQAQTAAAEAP
T1 sequence (Q96SW2 whole entry, the tested form may be a part): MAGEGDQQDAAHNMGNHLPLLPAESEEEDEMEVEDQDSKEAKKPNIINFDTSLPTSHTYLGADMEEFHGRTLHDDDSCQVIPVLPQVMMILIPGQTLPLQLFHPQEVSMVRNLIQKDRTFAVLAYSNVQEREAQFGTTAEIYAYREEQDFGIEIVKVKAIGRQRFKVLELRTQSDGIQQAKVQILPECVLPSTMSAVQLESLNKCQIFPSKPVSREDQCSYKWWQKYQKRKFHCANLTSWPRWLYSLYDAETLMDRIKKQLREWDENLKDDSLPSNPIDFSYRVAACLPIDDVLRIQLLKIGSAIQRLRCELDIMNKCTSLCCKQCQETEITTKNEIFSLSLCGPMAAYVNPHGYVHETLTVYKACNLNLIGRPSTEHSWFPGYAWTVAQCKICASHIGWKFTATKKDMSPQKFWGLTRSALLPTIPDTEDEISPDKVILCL
T1 sequence (Q16531 whole entry partner, the tested form may be a part): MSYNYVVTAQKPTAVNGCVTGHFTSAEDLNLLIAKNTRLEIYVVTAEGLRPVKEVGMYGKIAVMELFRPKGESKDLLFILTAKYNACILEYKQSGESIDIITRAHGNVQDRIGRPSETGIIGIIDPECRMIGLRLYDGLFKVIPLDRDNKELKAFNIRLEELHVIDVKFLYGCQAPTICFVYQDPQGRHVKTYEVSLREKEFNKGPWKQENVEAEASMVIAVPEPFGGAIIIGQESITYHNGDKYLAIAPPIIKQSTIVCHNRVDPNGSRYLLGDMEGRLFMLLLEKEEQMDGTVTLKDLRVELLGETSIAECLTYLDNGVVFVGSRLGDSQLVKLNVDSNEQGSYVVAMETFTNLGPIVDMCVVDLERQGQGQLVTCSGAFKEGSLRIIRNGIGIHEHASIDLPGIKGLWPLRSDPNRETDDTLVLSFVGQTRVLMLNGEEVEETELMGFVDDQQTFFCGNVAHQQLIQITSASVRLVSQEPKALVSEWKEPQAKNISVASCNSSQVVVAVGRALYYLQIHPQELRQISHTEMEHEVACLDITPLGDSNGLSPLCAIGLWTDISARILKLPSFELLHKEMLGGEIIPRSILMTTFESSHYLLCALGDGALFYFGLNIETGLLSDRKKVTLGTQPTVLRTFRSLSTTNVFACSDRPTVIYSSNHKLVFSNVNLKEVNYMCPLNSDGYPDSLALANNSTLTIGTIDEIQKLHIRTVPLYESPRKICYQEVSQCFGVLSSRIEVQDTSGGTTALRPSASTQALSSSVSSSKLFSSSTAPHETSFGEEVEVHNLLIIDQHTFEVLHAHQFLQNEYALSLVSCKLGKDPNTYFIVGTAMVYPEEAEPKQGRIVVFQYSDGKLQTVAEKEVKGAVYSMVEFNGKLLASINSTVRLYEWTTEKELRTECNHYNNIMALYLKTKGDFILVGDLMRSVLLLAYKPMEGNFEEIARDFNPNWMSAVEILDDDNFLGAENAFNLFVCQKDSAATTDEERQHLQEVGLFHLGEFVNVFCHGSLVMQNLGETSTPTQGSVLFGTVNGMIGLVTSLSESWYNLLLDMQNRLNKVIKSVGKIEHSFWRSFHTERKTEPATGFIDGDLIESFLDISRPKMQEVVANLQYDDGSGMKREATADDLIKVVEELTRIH

Row | Structure (SMILES) | Dmax at 25 µM [1] | remaining activity at 25 µM [2] | DC50 [3] | % degradation of WIZ (100 − Amax) (100 − Amax, at 25 uM; 293T cells) | WIZ Amax (DMSO-normalized, curve-fitted percentage of WIZ-HiBit remaining at 25 uM; 293T cells) | Dmax [4] | remaining activity (HEK-293T, read-out: WIZ Amax) | DC50 (read-out: WIZ AC50; WIZ HiBit assay in 293T cells; 10-point, 5-fold dose response, highest concentration 25 μM, about 18 hours)
1 | O=C1CCN(c2cnn3ccc(CC4CCN(Cc5ccccn5)CC4)cc23)C(=O)N1 [Example 111] | 56% | 44% | 304 nM | – | – | – | – | –
2 | C[C@H]1CN(CC2CCCO2)CCN1Cc1ccn2ncc(N3CCC(=O)NC3=O)c2c1 (stereo partly drawn) [Example 225] | 32% | 68% | 1050 nM | – | – | – | – | –
3 | COc1cn(-c2cnn3ccc(C[C@@H]4CCN(CC5CCC(F)(F)CC5)[C@@H](C)C4)cc23)c(=O)[nH]c1=O [Example 353, 1-(5-(((2S,4R)-1-((4,4-difluorocyclohexyl)methyl)-2-methylpiperidin-4-yl)methyl)pyrazolo[1,5-a]pyridin-3-yl)-5-methoxypyrimidine-2,4(1H,3H)-dione] | 70% | 30% | 9100 nM | – | – | – | – | –
4 | O=C1CCN(c2cnn3ccc(CN4CCN5CCCC[C@H]5C4)cc23)C(=O)N1 [Example 262, (S)-1-(5-((octahydro-2H-pyrido[1,2-a]pyrazin-2-yl)methyl)pyrazolo[1,5-a]pyridin-3-yl)dihydropyrimidine-2,4(1H,3H)-dione] | 68% | 32% | 583 nM | – | – | – | – | –
5 | O=C1CCN(c2cnn3ccc(CC4CCN(C(=O)Oc5ccccc5)CC4)cc23)C(=O)N1 [Example 94] | 62% | 38% | 3990 nM | – | – | – | – | –
6 | CC(C)(C1CCC(F)(F)CC1)N1CCN(Cc2ccn3ncc(N4CCC(=O)NC4=O)c3c2)CC1 [Example 181, 1-(5-((4-(2-(4,4-difluorocyclohexyl)propan-2-yl)piperazin-1-yl)methyl)pyrazolo[1,5-a]pyridin-3-yl)dihydropyrimidine-2,4(1H,3H)-dione] | – | – | – | – | – | 75% | 25% | 30 nM
7 | CC(C)CN1CCC(F)(Cc2ccn3ncc(N4CCC(=O)NC4=O)c3c2)CC1 [Example 124, 1-(5-((4-fluoro-1-isobutylpiperidin-4-yl)methyl)pyrazolo[1,5-a]pyridin-3-yl)dihydropyrimidine-2,4(1H,3H)-dione] | 58% | 42% | 502 nM | – | – | – | – | –
8 | O=C1CCN(c2cnn3ccc(CN4CCN(Cc5ccncc5)CC4)cc23)C(=O)N1 [Example 176] | 38% | 62% | 1400 nM | – | – | – | – | –
9 | C[C@H]1C[C@H](Cc2ccn3ncc(N4CCC(=O)NC4=O)c3c2)CCN1CC(F)(F)C(F)F [Example 273, 1-(5-(((2S,4R)-2-methyl-1-(2,2,3,3-tetrafluoropropyl)piperidin-4-yl)methyl)pyrazolo[1,5-a]pyridin-3-yl)dihydropyrimidine-2,4(1H,3H)-dione] | – | – | 40 nM | – | – | 78% | 22% | –
10 | O=C1CCN(c2cnn3ccc(CN4CCN(Cc5cscn5)CC4)cc23)C(=O)N1 [Example 197, 1-(5-((4-(thiazol-4-ylmethyl)piperazin-1-yl)methyl)pyrazolo[1,5-a]pyridin-3-yl)dihydropyrimidine-2,4(1H,3H)-dione] | 40% | 60% | 1140 nM | – | – | – | – | –
11 | Cc1cn(-c2cnn3ccc(CN4CCN(CC(C)C)[C@@H](C)C4)cc23)c(=O)[nH]c1=O [Example 359, (S)-1-(5-((4-isobutyl-3-methylpiperazin-1-yl)methyl)pyrazolo[1,5-a]pyridin-3-yl)-5-methylpyrimidine-2,4(1H,3H)-dione] | 89% | 11% | 365 nM | – | – | – | – | –
12 | O=C1CCN(c2cnn3ccc(CC4C[C@H]5CC[C@@H](C4)N5Cc4cccnc4)cc23)C(=O)N1 (stereo partly drawn) [Example 68, 1-(5-(((1R,5S)-8-(pyridin-3-ylmethyl)-8-azabicyclo[3.2.1]octan-3-yl)methyl)pyrazolo[1,5-a]pyridin-3-yl)dihydropyrimidine-2,4(1H,3H)-dione] | 57% | 43% | 384 nM | – | – | – | – | –
13 | CC(C)(CC1CCOCC1)N1CCC(Cc2ccn3ncc(N4CCC(=O)NC4=O)c3c2)CC1 [Example 137, 1-(5-((1-(2-methyl-1-(tetrahydro-2H-pyran-4-yl)propan-2-yl)piperidin-4-yl)methyl)pyrazolo[1,5-a]pyridin-3-yl)dihydropyrimidine-2,4(1H,3H)-dione] | 77% | 23% | 121 nM | – | – | – | – | –
14 | O=C1CCN(c2cnn3ccc(CC4C[C@H]5CC[C@@H](C4)N5CC4CCCCC4)cc23)C(=O)N1 (stereo partly drawn) [Example 66, 1-(5-(((1R,5S)-8-(cyclohexylmethyl)-8-azabicyclo[3.2.1]octan-3-yl)methyl)pyrazolo[1,5-a]pyridin-3-yl)dihydropyrimidine-2,4(1H,3H)-dione] | 72% | 28% | 195 nM | – | – | – | – | –
15 | COCC(F)(F)CN1CCN(Cc2ccn3ncc(N4CCC(=O)NC4=O)c3c2)C[C@@H]1C [Example 328, (S)-1-(5-((4-(2,2-difluoro-3-methoxypropyl)-3-methylpiperazin-1-yl)methyl)pyrazolo[1,5-a]pyridin-3-yl)dihydropyrimidine-2,4(1H,3H)-dione] | 52% | 48% | 338 nM | – | – | – | – | –

Further lines, with some results ahead:

Row | Dmax at 25 µM [1] | remaining activity at 25 µM [2] | DC50 [3] | % degradation of WIZ (100 − Amax) (100 − Amax, at 25 uM; 293T cells) | WIZ Amax (DMSO-normalized, curve-fitted percentage of WIZ-HiBit remaining at 25 uM; 293T cells) | Structure (SMILES) | Dmax [4] | remaining activity (HEK-293T, read-out: WIZ Amax) | DC50 (read-out: WIZ AC50; WIZ HiBit assay in 293T cells; 10-point, 5-fold dose response, highest concentration 25 μM, about 18 hours)
16 | 70% | 30% | 85 nM | – | – | O=C1CCN(c2cnn3ccc(CN4CCN5CCCC[C@@H]5C4)cc23)C(=O)N1 [Example 313, (R)-1-(5-((octahydro-2H-pyrido[1,2-a]pyrazin-2-yl)methyl)pyrazolo[1,5-a]pyridin-3-yl)dihydropyrimidine-2,4(1H,3H)-dione] | – | – | –
17 | – | – | 56 nM | 62% | 38% | C[C@H]1CC(F)(Cc2ccn3ncc(N4CCC(=O)NC4=O)c3c2)CCN1CC1CCC(F)(F)CC1 (single isomer, unassigned) [Example 309] | – | – | –
18 | 86% | 14% | 8 nM | – | – | O=C1CCN(c2cnn3ccc(CC4CCN(CC5CCCCCC5)CC4)cc23)C(=O)N1 [Example 8, 1-(5-((1-(cycloheptylmethyl)piperidin-4-yl)methyl)pyrazolo[1,5-a]pyridin-3-yl)dihydropyrimidine-2,4(1H,3H)-dione] | – | – | –
19 | 82% | 18% | 51 nM | – | – | C[C@H]1C[C@H](Cc2ccn3ncc(N4CCC(=O)NC4=O)c3c2)CCN1CC1CCC1 [Example 146] | – | – | –
20 | 71% | 29% | 68 nM | – | – | C[C@@H]1CN(CC2CCCCC2)CCN1Cc1ccn2ncc(N3CCC(=O)NC3=O)c2c1 [Example 218] | – | – | –
21 | 86% | 14% | 19 nM | – | – | C[C@H]1CN(Cc2ccn3ncc(N4CCC(=O)NC4=O)c3c2)CCN1CC1CCCCC1 [Example 192, (S)-1-(5-((4-(cyclohexylmethyl)-3-methylpiperazin-1-yl)methyl)pyrazolo[1,5-a]pyridin-3-yl)dihydropyrimidine-2,4(1H,3H)-dione] | – | – | –
22 | 70% | 30% | 52 nM | – | – | COc1cccc(CN2CCC(Cc3ccn4ncc(N5CCC(=O)NC5=O)c4c3)CC2)c1 [Example 40, 1-(5-((1-(3-methoxybenzyl)piperidin-4-yl)methyl)pyrazolo[1,5-a]pyridin-3-yl)dihydropyrimidine-2,4(1H,3H)-dione] | – | – | –
23 | 84% | 16% | 8 nM | – | – | C[C@H]1C[C@H](Cc2ccn3ncc(N4CCC(=O)NC4=O)c3c2)CCN1C[C@@H]1CCC(F)(F)C1 [Example 306, 1-(5-(((2S,4R)-1-(((R)-3,3-difluorocyclopentyl)methyl)-2-methylpiperidin-4-yl)methyl)pyrazolo[1,5-a]pyridin-3-yl)dihydropyrimidine-2,4(1H,3H)-dione] | – | – | –
24 | 69% | 31% | 58 nM | – | – | Cc1ccc(CN2CCC(Cc3ccn4ncc(N5CCC(=O)NC5=O)c4c3)CC2)cn1 [Example 46, 1-(5-((1-((6-methylpyridin-3-yl)methyl)piperidin-4-yl)methyl)pyrazolo[1,5-a]pyridin-3-yl)dihydropyrimidine-2,4(1H,3H)-dione] | – | – | –
25 | 68% | 32% | 87 nM | – | – | C=C(C)CN1CCC(Cc2ccn3ncc(N4CCC(=O)NC4=O)c3c2)CC1 [Example 39a, 1-(5-((1-(2-methylallyl)piperidin-4-yl)methyl)pyrazolo[1,5-a]pyridin-3-yl)dihydropyrimidine-2,4(1H,3H)-dione] | – | – | –
26 | 80% | 20% | 100 nM | – | – | CC(C)(C1CCC1)N1CCC(Cc2ccn3ncc(N4CCC(=O)NC4=O)c3c2)CC1 [Example 138, 1-(5-((1-(2-cyclobutylpropan-2-yl)piperidin-4-yl)methyl)pyrazolo[1,5-a]pyridin-3-yl)dihydropyrimidine-2,4(1H,3H)-dione] | – | – | –
27 | 81% | 19% | 95 nM | – | – | O=C1CCN(c2cnn3ccc(CN4CCN(CC5CC(F)(F)C5)CC4)cc23)C(=O)N1 [Example 174] | – | – | –
28 | 85% | 15% | 9 nM | – | – | C[C@@H]1C[C@@H](Cc2ccn3ncc(N4CCC(=O)NC4=O)c3c2)CCN1CC1CCC(F)(F)CC1 [Example 155] | – | – | –
